Reference: patent publication US3943129A, “7-Amino-3-(1,3,4-thiadiazolinylthio-methyl) cephalosporins” (SmithKline Corporation, priority 1974, dated 1976)
In brackets after ≈: the same amount, converted by molar mass.

Assays:
[1] = system: Sal. paratyphi ATCC 12176; experiment: Minimum inhibitory concentration (MIC); assay type: cell-based; details: Salmonella enterica
E. coli = experiment: In vivo ED50 in infected mice, oral; details: Escherichia coli, in Mus musculus
Kleb. pneumonia = experiment: In vivo ED50 in infected mice, oral; details: Mus musculus
S. aureus HH 127 = experiment: Minimum inhibitory concentration (MIC); details: Staphylococcus aureus, HH127
S. aureus SK 23390 = experiment: Minimum inhibitory concentration (MIC); details: Staphylococcus aureus, SK23390
Strep. pyog. C203 = experiment: Minimum inhibitory concentration (MIC)
Strep. faecalis HH 34358 = experiment: Minimum inhibitory concentration (MIC); details: Enterococcus faecalis, HH34358
E. coli SK 12140 [2] = experiment: Minimum inhibitory concentration (MIC); details: Escherichia coli, SK12140
E. coli HH 33779 = experiment: Minimum inhibitory concentration (MIC); details: Escherichia coli, HH33779
Kleb. pneumo. SK 4200 [3] = experiment: Minimum inhibitory concentration (MIC)
Kleb. pneumo. SK 1200 = experiment: Minimum inhibitory concentration (MIC)
Pseudomonas sp. HH 63 = experiment: Minimum inhibitory concentration (MIC); details: SP.HH63
[4] = system: Entero. aerogenes ATCC13048; experiment: Minimum inhibitory concentration (MIC); details: Klebsiella aerogenes
[5] = system: Serrantia marcescens ATCC 13880; experiment: Minimum inhibitory concentration (MIC)
Staph. aurcus villaluz = experiment: Minimum inhibitory concentration (MIC)
E. coli SK 12140 [6] = experiment: In vivo ED50 in infected mice, subcutaneous; details: Escherichia coli, SK12140, in Mus musculus, sc
Kleb. pneumo. SK 4200 [7] = experiment: In vivo ED50 in infected mice, subcutaneous; details: Mus musculus, sc
Stability in solution = assay type: physicochemical; details: neutral or basic pH, vs any prior art compounds that were tested
Stability to copper ion = assay type: physicochemical; details: vs tested prior art compounds
[8] = system: Entero. cloaca Pa.S.L.969; experiment: Minimum inhibitory concentration (MIC)
Shig. paradys. HH 127 = experiment: Minimum inhibitory concentration (MIC)

SMILES	MIC [1] [µg/mL]	MIC (S. aureus HH 127) [µg/mL]	MIC (S. aureus SK 23390) [µg/mL]	MIC (Strep. pyog. C203) [µg/mL]	MIC (Strep. faecalis HH 34358) [µg/mL]	MIC (E. coli SK 12140 [2]) [µg/mL]	MIC (E. coli HH 33779) [µg/mL]	MIC (Kleb. pneumo. SK 4200 [3]) [µg/mL]	MIC (Kleb. pneumo. SK 1200) [µg/mL]	MIC (Pseudomonas sp. HH 63) [µg/mL]	MIC [4] [µg/mL]	MIC [5] [µg/mL]	MIC (Staph. aurcus villaluz) [µg/mL]	ED50 (E. coli SK 12140 [6]) [mg/kg]	ED50 (Kleb. pneumo. SK 4200 [7]) [mg/kg]	MIC [8] [µg/mL]	also measured
NC(C(=O)NC1C(=O)N2C(C(=O)O)=C(CSc3n[nH]c(=O)[nH]3)CSC12)c1ccc(O)cc1 (stereo not shown) [Compound IV]	6.3 (≈ 13.2 µM)	6.3 (≈ 13.2 µM)	6.3 (≈ 13.2 µM)	0.1 (≈ 0.209 µM)	100 (≈ 209 µM)	6.3 (≈ 13.2 µM)	25 (≈ 52.2 µM)	6.3 (≈ 13.2 µM)	12.5 (≈ 26.1 µM)	> 200	12.5 (≈ 26.1 µM)	> 200	25 (≈ 52.2 µM)	4	2.8		ED50 (E. coli): 9.5 mg/kg; ED50 (Kleb. pneumonia): 6.2 mg/kg
NC(C(=O)NC1C(=O)N2C(C(=O)O)=C(CSc3n[nH]c(=O)[nH]3)CSC12)c1ccccc1 (stereo not shown) [Compound I]	1.6 (≈ 3.46 µM)	1.6 (≈ 3.46 µM)	1.6 (≈ 3.46 µM)	0.1 (≈ 0.216 µM)	50 (≈ 108 µM)	3.1 (≈ 6.7 µM)	6.3 (≈ 13.6 µM)	3.1 (≈ 6.7 µM)	3.1 (≈ 6.7 µM)	> 200	6.3 (≈ 13.6 µM)	200 (≈ 432 µM)	12.5 (≈ 27 µM)	2.9	7	12.5 (≈ 27 µM)	stability in solution (Stability in solution): more stable in solution at neutral or basic pH than any prior art compounds that were tested; stability to copper ion (Stability to copper ion): greater stability to copper ion than tested prior art compounds
CCn1c(SCC2=C(C(=O)O)N3C(=O)C(NC(=O)C(N)c4ccccc4)C3SC2)n[nH]c1=O (stereo not shown) [III]	3.1 (≈ 6.32 µM)	3.1 (≈ 6.32 µM)	3.1 (≈ 6.32 µM)	0.1 (≈ 0.204 µM)	25 (≈ 51 µM)	12.5 (≈ 25.5 µM)	12.5 (≈ 25.5 µM)	6.3 (≈ 12.8 µM)	6.3 (≈ 12.8 µM)	> 200	25 (≈ 51 µM)	200 (≈ 408 µM)	25 (≈ 51 µM)	29	92	25 (≈ 51 µM)	
Cn1c(SCC2=C(C(=O)O)N3C(=O)C(NC(=O)C(N)c4ccccc4)C3SC2)n[nH]c1=O (stereo not shown) [II]	3.1 (≈ 6.51 µM)	6.3 (≈ 13.2 µM)	3.1 (≈ 6.51 µM)	0.1 (≈ 0.21 µM)	50 (≈ 105 µM)	12.5 (≈ 26.2 µM)	25 (≈ 52.5 µM)	6.3 (≈ 13.2 µM)	6.3 (≈ 13.2 µM)	> 200	25 (≈ 52.5 µM)	> 200	25 (≈ 52.5 µM)	12.5	11.5	50 (≈ 105 µM)	
O=C(Cc1cccs1)N[C@@H]1C(=O)N2C(C(=O)[O-])=C(C[n+]3ccccc3)CS[C@H]12 [S-I, cephaloridine, reference compound]	1.6 (≈ 3.85 µM)	0.4 (≈ 0.963 µM)	0.1 (≈ 0.241 µM)	0.1 (≈ 0.241 µM)	6.3 (≈ 15.2 µM)	3.1 (≈ 7.46 µM)	6.3 (≈ 15.2 µM)	3.1 (≈ 7.46 µM)	3.1 (≈ 7.46 µM)	> 200	> 200	> 200	12.5 (≈ 30.1 µM)	6	7.6	> 200	MIC (Shig. paradys. HH 127): 1.6 µg/mL (≈ 3.85 µM)
CC1=C(C(=O)O)N2C(=O)[C@@H](NC(=O)[C@H](N)c3ccccc3)[C@H]2SC1 [S-II, cephalexin, reference compound]	3.1 (≈ 8.92 µM)	3.1 (≈ 8.92 µM)	1.6 (≈ 4.61 µM)	0.1 (≈ 0.288 µM)	50 (≈ 144 µM)	6.3 (≈ 18.1 µM)	6.3 (≈ 18.1 µM)	6.3 (≈ 18.1 µM)	3.1 (≈ 8.92 µM)	> 200	12.5 (≈ 36 µM)	50 (≈ 144 µM)	50 (≈ 144 µM)	12	25	6.3 (≈ 18.1 µM)	
O=C(O)C1=C(CSc2n[nH]c(=S)s2)CSC2C(NC(=O)C(O)c3ccccc3)C(=O)N12 (stereo not shown) [VII]	0.8 (≈ 1.61 µM)	0.8 (≈ 1.61 µM)	0.4 (≈ 0.805 µM)	0.2 (≈ 0.403 µM)	25 (≈ 50.3 µM)	1.6 (≈ 3.22 µM)	3.1 (≈ 6.24 µM)	1.6 (≈ 3.22 µM)	0.8 (≈ 1.61 µM)	> 200	12.5 (≈ 25.2 µM)	200 (≈ 403 µM)	12.5 (≈ 25.2 µM)	21.5	64		
Cn1c(SCC2=C(C(=O)O)N3C(=O)C(NC(=O)C(O)c4ccccc4)C3SC2)n[nH]c1=O (stereo not shown) [VI]	3.1 (≈ 6.49 µM)	1.6 (≈ 3.35 µM)	0.4 (≈ 0.838 µM)	0.1 (≈ 0.209 µM)	25 (≈ 52.4 µM)	6.3 (≈ 13.2 µM)	12.5 (≈ 26.2 µM)		3.1 (≈ 6.49 µM)	> 200	12.5 (≈ 26.2 µM)	> 200	12.5 (≈ 26.2 µM)	9	21		
O=C(O)C1=C(CSc2n[nH]c(=O)[nH]2)CSC2C(NC(=O)C(O)c3ccccc3)C(=O)N12 (stereo not shown) [V]	1.6 (≈ 3.45 µM)	0.8 (≈ 1.73 µM)	0.4 (≈ 0.863 µM)	0.1 (≈ 0.216 µM)	50 (≈ 108 µM)	3.1 (≈ 6.69 µM)	6.3 (≈ 13.6 µM)	3.1 (≈ 6.69 µM)	1.6 (≈ 3.45 µM)	> 200	12.5 (≈ 27 µM)	> 200	25 (≈ 53.9 µM)	4	8.7	12.5 (≈ 27 µM)	
